Assay results published in article PMC9403976, “Elucidating the path to Plasmodium prolyl-tRNA synthetase inhibitors that overcome halofuginone resistance” (Nature Communications, 2022).
Where “and” joins values, the source holds several entries; their conditions need not be identical. Equal entries are not always repeated. Where two headings read alike, the source gives them in different places.

Tests used:
P. falciparum Dd2-2D4 = experiment: P. falciparum asexual blood stage (ABS) growth assay, SYBR Green, 72 h, wild-type parasites; type: cell-based, Plasmodium falciparum
HsProRS = HsProRS (Homo sapiens, UniProt P07814); experiment: TR-FRET ligand displacement assay with tracer MAT379 (CoraFluor-1-Halo and anti-His6 antibody formats); type: binding; set-up: made in house; host or cells: E. coli SoluBL-21; conditions: for TR-FRET dose-response, normalized signal (SI Fig 11): individual replicates; for HsProRS % signal at 10 μM: no added proline/ATP (-)
Chain of HsProRS (P07814 996-1512): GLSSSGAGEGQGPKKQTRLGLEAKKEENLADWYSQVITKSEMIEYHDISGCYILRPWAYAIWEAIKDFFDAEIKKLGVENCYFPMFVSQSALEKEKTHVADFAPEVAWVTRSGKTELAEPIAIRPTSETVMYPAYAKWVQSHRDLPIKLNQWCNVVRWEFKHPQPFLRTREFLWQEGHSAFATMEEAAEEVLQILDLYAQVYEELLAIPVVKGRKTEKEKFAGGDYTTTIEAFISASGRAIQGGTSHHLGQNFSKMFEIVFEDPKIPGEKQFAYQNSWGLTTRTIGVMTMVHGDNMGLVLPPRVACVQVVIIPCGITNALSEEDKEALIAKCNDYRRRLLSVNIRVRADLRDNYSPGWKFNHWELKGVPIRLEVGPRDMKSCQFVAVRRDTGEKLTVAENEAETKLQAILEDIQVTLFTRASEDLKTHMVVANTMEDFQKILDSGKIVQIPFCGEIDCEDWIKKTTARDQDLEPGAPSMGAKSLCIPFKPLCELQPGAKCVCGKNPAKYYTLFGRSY

PfcProRS = biological target: T1, PfcProRS (Plasmodium falciparum, UniProt Q8I5R7); type: binding; conditions: for dose-response signal (normalized), SI Fig 8: single replicates; for Normalized response, dose-response replicates (SI Fig 14): replicates 1-3
T1 construct: made in house; host or cells: E. coli SoluBL-21
T1 sequence (Q8I5R7 249-746): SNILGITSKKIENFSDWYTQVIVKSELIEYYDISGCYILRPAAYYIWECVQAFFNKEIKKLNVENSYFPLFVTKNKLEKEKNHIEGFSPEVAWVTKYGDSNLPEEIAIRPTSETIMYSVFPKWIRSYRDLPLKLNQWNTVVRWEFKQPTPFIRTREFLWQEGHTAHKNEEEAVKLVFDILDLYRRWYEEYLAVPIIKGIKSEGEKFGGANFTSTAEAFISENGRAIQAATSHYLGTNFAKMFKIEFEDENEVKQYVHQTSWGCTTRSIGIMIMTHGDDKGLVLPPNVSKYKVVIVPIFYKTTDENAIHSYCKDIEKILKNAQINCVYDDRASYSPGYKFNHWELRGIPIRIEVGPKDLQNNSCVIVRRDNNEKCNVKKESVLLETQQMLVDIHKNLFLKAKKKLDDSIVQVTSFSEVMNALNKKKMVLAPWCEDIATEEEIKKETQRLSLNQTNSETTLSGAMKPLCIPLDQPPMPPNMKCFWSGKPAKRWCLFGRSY

O=C(NC1Cc2ccccc2C1)c1nccnc1NC(=O)N1CCNCC1 [compound 14]
dose-response value per replicate (SI Fig 2g) (P. falciparum Dd2-2D4; Log[inhibitor] (M) -7.408): 106 | IC50 (HsProRS): > 10 µM | Kd (HsProRS; HsProRS - best Kd, SI Fig 16a, values on -log scale): 347 nM | normalized TR-FRET ligand displacement signal, dose-response replicates (SI Fig 6) (HsProRS; Log[inhibitor] (M) -5.000): 7.56E-01 and 7.38E-01 and 6.65E-01 | TR-FRET dose-response, normalized signal (SI Fig 11) (HsProRS; Log[inhibitor] (M) -5.000): 5.37E-01 and 5.66E-01 and 5.12E-01 | normalized TR-FRET ligand displacement signal, dose-response replicates (SI Fig 6) (HsProRS; Log[inhibitor] (M) -5.301): 8.27E-01 and 7.77E-01 and 8.29E-01 | TR-FRET dose-response, normalized signal (SI Fig 11) (HsProRS; Log[inhibitor] (M) -5.301): 7.06E-01 and 7.34E-01 and 7.02E-01 | normalized TR-FRET ligand displacement signal, dose-response replicates (SI Fig 6) (HsProRS; Log[inhibitor] (M) -5.601): 9.28E-01 and 8.85E-01 and 8.45E-01 | TR-FRET dose-response, normalized signal (SI Fig 11) (HsProRS; Log[inhibitor] (M) -5.601): 8.30E-01 and 8.51E-01 and 8.70E-01 | normalized TR-FRET ligand displacement signal, dose-response replicates (SI Fig 6) (HsProRS; Log[inhibitor] (M) -5.904): 9.66E-01 and 1.02E+00 and 8.66E-01 | TR-FRET dose-response, normalized signal (SI Fig 11) (HsProRS; Log[inhibitor] (M) -5.904): 9.48E-01 and 8.82E-01 and 9.17E-01 | normalized TR-FRET ligand displacement signal, dose-response replicates (SI Fig 6) (HsProRS; Log[inhibitor] (M) -6.208): 9.85E-01 and 9.86E-01 and 1.00E+00 | TR-FRET dose-response, normalized signal (SI Fig 11) (HsProRS; Log[inhibitor] (M) -6.208): 9.32E-01 and 8.78E-01 and 9.58E-01 | normalized TR-FRET ligand displacement signal, dose-response replicates (SI Fig 6) (HsProRS; Log[inhibitor] (M) -6.509): 1.15E+00 and 1.03E+00 and 9.65E-01 | TR-FRET dose-response, normalized signal (SI Fig 11) (HsProRS; Log[inhibitor] (M) -6.509): 9.64E-01 and 9.63E-01 and 9.66E-01 | normalized TR-FRET ligand displacement signal, dose-response replicates (SI Fig 6) (HsProRS; Log[inhibitor] (M) -6.796): 1.11E+00 and 1.13E+00 and 1.12E+00 | TR-FRET dose-response, normalized signal (SI Fig 11) (HsProRS; Log[inhibitor] (M) -6.796): 1.02E+00 and 9.73E-01 and 9.90E-01 | normalized TR-FRET ligand displacement signal, dose-response replicates (SI Fig 6) (HsProRS; Log[inhibitor] (M) -7.108): 1.08E+00 and 1.05E+00 and 9.83E-01 | TR-FRET dose-response, normalized signal (SI Fig 11) (HsProRS; Log[inhibitor] (M) -7.108): 9.95E-01 and 1.03E+00 and 9.34E-01 | normalized TR-FRET ligand displacement signal, dose-response replicates (SI Fig 6) (HsProRS; Log[inhibitor] (M) -7.409): 9.81E-01 and 8.66E-01 and 9.44E-01 | TR-FRET dose-response, normalized signal (SI Fig 11) (HsProRS; Log[inhibitor] (M) -7.409): 9.68E-01 and 9.66E-01 and 9.87E-01 | normalized TR-FRET ligand displacement signal, dose-response replicates (SI Fig 6) (HsProRS; Log[inhibitor] (M) -7.710): 1.08E+00 and 1.01E+00 (2×) | TR-FRET dose-response, normalized signal (SI Fig 11) (HsProRS; Log[inhibitor] (M) -7.710): 1.03E+00 (2×) and 9.36E-01 | normalized TR-FRET ligand displacement signal, dose-response replicates (SI Fig 6) (HsProRS; Log[inhibitor] (M) -8.000): 9.08E-01 and 9.09E-01 and 9.75E-01 | TR-FRET dose-response, normalized signal (SI Fig 11) (HsProRS; Log[inhibitor] (M) -8.000): 1.02E+00 and 1.03E+00 and 9.52E-01 | normalized TR-FRET ligand displacement signal, dose-response replicates (SI Fig 6) (HsProRS; Log[inhibitor] (M) -8.301): 9.22E-01 and 9.86E-01 and 9.29E-01 | TR-FRET dose-response, normalized signal (SI Fig 11) (HsProRS; Log[inhibitor] (M) -8.301): 1.02E+00 and 9.93E-01 and 9.56E-01 | normalized TR-FRET ligand displacement signal, dose-response replicates (SI Fig 6) (HsProRS; Log[inhibitor] (M) -8.602): 9.82E-01 and 1.05E+00 and 8.99E-01 | TR-FRET dose-response, normalized signal (SI Fig 11) (HsProRS; Log[inhibitor] (M) -8.602): 9.98E-01 and 9.57E-01 and 9.65E-01 | normalized TR-FRET ligand displacement signal, dose-response replicates (SI Fig 6) (HsProRS; Log[inhibitor] (M) -9.000): 1.07E+00 and 1.04E+00 and 1.00E+00 | TR-FRET dose-response, normalized signal (SI Fig 11) (HsProRS; Log[inhibitor] (M) -9.000): 1.00E+00 and 9.49E-01 and 9.70E-01 | normalized TR-FRET ligand displacement signal, dose-response replicates (SI Fig 6) (HsProRS; Log[inhibitor] (M) -9.301): 9.76E-01 and 9.94E-01 and 1.01E+00 | TR-FRET dose-response, normalized signal (SI Fig 11) (HsProRS; Log[inhibitor] (M) -9.301): 9.76E-01 and 1.00E+00 and 9.87E-01 | HsProRS % signal at 10 μM (HsProRS): 53.8% | dose-response signal (normalized), SI Fig 8 (PfcProRS; Log[inhibitor] (M) -5.000): 3.52E-01 and 3.02E-01 and 4.80E-01 | dose-response signal (normalized), SI Fig 8 (PfcProRS; Log[inhibitor] (M) -5.301): 6.97E-01 and 5.97E-01 and 7.91E-01 | dose-response signal (normalized), SI Fig 8 (PfcProRS; Log[inhibitor] (M) -5.601): 7.61E-01 and 7.19E-01 and 8.51E-01 | dose-response signal (normalized), SI Fig 8 (PfcProRS; Log[inhibitor] (M) -5.904): 9.39E-01 and 1.01E+00 and 9.69E-01 | dose-response signal (normalized), SI Fig 8 (PfcProRS; Log[inhibitor] (M) -6.208): 9.51E-01 and 9.80E-01 and 1.13E+00 | dose-response signal (normalized), SI Fig 8 (PfcProRS; Log[inhibitor] (M) -6.509): 1.06E+00 and 1.12E+00 and 9.92E-01 | dose-response signal (normalized), SI Fig 8 (PfcProRS; Log[inhibitor] (M) -6.796): 9.94E-01 and 1.03E+00 and 9.99E-01 | dose-response signal (normalized), SI Fig 8 (PfcProRS; Log[inhibitor] (M) -7.108): 1.00E+00 and 1.01E+00 and 1.05E+00 | dose-response signal (normalized), SI Fig 8 (PfcProRS; Log[inhibitor] (M) -7.409): 1.05E+00 and 9.56E-01 and 1.00E+00 | dose-response signal (normalized), SI Fig 8 (PfcProRS; Log[inhibitor] (M) -7.710): 1.05E+00 and 1.12E+00 and 1.08E+00 | dose-response signal (normalized), SI Fig 8 (PfcProRS; Log[inhibitor] (M) -8.000): 9.77E-01 and 1.04E+00 (2×) | dose-response signal (normalized), SI Fig 8 (PfcProRS; Log[inhibitor] (M) -8.301): 1.09E+00 and 1.08E+00 and 1.13E+00 | dose-response signal (normalized), SI Fig 8 (PfcProRS; Log[inhibitor] (M) -8.602): 9.19E-01 and 1.01E+00 and 1.04E+00 | dose-response signal (normalized), SI Fig 8 (PfcProRS; Log[inhibitor] (M) -9.000): 9.80E-01 and 1.02E+00 and 1.08E+00 | dose-response signal (normalized), SI Fig 8 (PfcProRS; Log[inhibitor] (M) -9.301): 1.02E+00 and 1.01E+00 and 8.73E-01 | PfcProRS -- best Kd (PfcProRS; SI Fig 16a, values on -log scale): 5.788

O=c1[nH]c2nccnc2c(=O)n1C1Cc2ccccc2C1 [compound 47]
EC50 (P. falciparum Dd2-2D4; Plasmodium falciparum, DD2, SI Fig 16b, values on -log scale, read-out: ABS - Dd2-2D4 (converted)): 11.1 µM | IC50 (HsProRS): > 10 µM | Kd (HsProRS; HsProRS (KD [nM]) + 100 μM proline mean, + 100 μM proline): 2650 nM | HsProRS % signal at 10 μM (HsProRS): 79.5% | Normalized response, dose-response replicates (SI Fig 14) (PfcProRS; Log[inhibitor] (M) -5.000): 3.53E-01 and 3.73E-01 and 3.10E-01 | Normalized response, dose-response replicates (SI Fig 14) (PfcProRS; Log[inhibitor] (M) -5.301): 5.89E-01 and 4.94E-01 and 3.58E-01 | Normalized response, dose-response replicates (SI Fig 14) (PfcProRS; Log[inhibitor] (M) -5.601): 7.17E-01 and 7.23E-01 and 6.31E-01 | Normalized response, dose-response replicates (SI Fig 14) (PfcProRS; Log[inhibitor] (M) -5.904): 1.01E+00 and 8.61E-01 and 7.86E-01 | Normalized response, dose-response replicates (SI Fig 14) (PfcProRS; Log[inhibitor] (M) -6.208): 1.02E+00 and 1.03E+00 and 9.13E-01 | Normalized response, dose-response replicates (SI Fig 14) (PfcProRS; Log[inhibitor] (M) -6.509): 9.57E-01 and 9.63E-01 and 9.85E-01 | Normalized response, dose-response replicates (SI Fig 14) (PfcProRS; Log[inhibitor] (M) -6.796): 1.08E+00 and 9.96E-01 and 1.07E+00 | Normalized response, dose-response replicates (SI Fig 14) (PfcProRS; Log[inhibitor] (M) -7.108): 9.59E-01 and 1.12E+00 and 1.15E+00 | Normalized response, dose-response replicates (SI Fig 14) (PfcProRS; Log[inhibitor] (M) -7.409): 1.11E+00 and 1.34E+00 and 1.10E+00 | Normalized response, dose-response replicates (SI Fig 14) (PfcProRS; Log[inhibitor] (M) -7.710): 1.07E+00 (2×) and 1.12E+00 | Normalized response, dose-response replicates (SI Fig 14) (PfcProRS; Log[inhibitor] (M) -8.000): 1.02E+00 and 1.00E+00 and 1.01E+00 | Normalized response, dose-response replicates (SI Fig 14) (PfcProRS; Log[inhibitor] (M) -8.301): 1.13E+00 and 1.06E+00 and 1.10E+00 | Normalized response, dose-response replicates (SI Fig 14) (PfcProRS; Log[inhibitor] (M) -8.602): 1.07E+00 and 9.89E-01 and 9.49E-01 | Normalized response, dose-response replicates (SI Fig 14) (PfcProRS; Log[inhibitor] (M) -9.000): 9.68E-01 and 9.48E-01 and 1.08E+00 | Normalized response, dose-response replicates (SI Fig 14) (PfcProRS; Log[inhibitor] (M) -9.301): 9.08E-01 and 1.04E+00 and 1.01E+00
